52 compounds from PubChem BioAssay AID1996 can be followed below.

≈ marks a conversion by molar mass, not a printed value.

The conditions of the data set: buffer; pH 7.4; 200.0 µM.
With `CCN(CC)c1ccc(NC(=S)NC(=O)c2cccs2)cc1`, the solubility (kinetic) (commonly the concentration staying in solution when a stock, usually in DMSO, is diluted into the medium) was less than 0.2 µg/mL.
The result for `CN1CCN(c2ccccc2NC(=O)c2ccccc2F)CC1` reads greater than 47 µg/mL; that for `O=C(CSc1ccccc1)Nc1ccc2c(c1)OCCO2`, greater than 45.2 µg/mL; that for `O=S(=O)(NCc1ccccn1)c1cc(Cl)ccc1Cl`, greater than 47.6 µg/mL.
The value for `COc1nccc(C(F)(F)F)c1C(=O)Nc1ccc(Cl)cc1` was 1.6 µg/mL (≈ 4.84 µM); that for `Cc1csc(NC(=O)CCCC(=O)O)c1-c1nc2ccccc2s1` was greater than 54.1 µg/mL.
For the compound `COc1ccc(NC(=S)Nc2ccc(C)c(Cl)c2)cc1OC`, the kinetic solubility amounted to 36.5 µg/mL (≈ 108 µM).
The result for `CSc1cccc(NC(=S)NCCCO)c1` reads 37.3 µg/mL (≈ 145 µM).
The value for `COc1ccc(CC(=O)NC(C)CCc2ccccc2)cc1OC` (configuration not stated) was greater than 49.1 µg/mL.
The result for `N#CC1(c2ccccc2)CCC(=O)N1Cc1ccccc1` (configuration not stated) reads greater than 41.5 µg/mL; that for `Cc1cccc(NC(=O)C2CCCN2C(=O)NC2CCCCC2)c1` (configuration not stated), 3.1 µg/mL (≈ 9.41 µM); that for `COC(=O)N1CCN(c2ccc(C)cc2)C(C)C1` (configuration not stated), greater than 37.2 µg/mL.
In the case of `O=C(O)C(=O)O.O=[N+]([O-])c1ccccc1CNC1CCCCCC1`, the kinetic solubility is greater than 50.8 µg/mL.
On to `COc1ccc(NC(=O)Nc2ccc([N+](=O)[O-])cc2)cn1`, for which the kinetic solubility was found to be 0.9 µg/mL (≈ 3.12 µM).
Consider `Cc1ccc(NC(=O)c2ccco2)c(NC(=O)c2ccccc2)c1`, for which the solubility (kinetic) amounted to 4.1 µg/mL (≈ 12.8 µM). This solubility kinetic lies about 4.6-fold higher than the previous one.
The result for `CC(C)Oc1ccc(C(=O)OC(C)C(=O)NC2CCCCC2C)cc1` (configuration not stated) reads 4.4 µg/mL (≈ 12.7 µM).
Turning to `C=CCn1c(/N=C/c2ccc(OC)cc2)nc2ccccc21`, the kinetic solubility came out at 40.6 µg/mL (≈ 139 µM). This solubility kinetic is about 9.2-fold higher than that of the compound before.
The value for `Cc1cc(NC(=O)Nc2cc(Cl)sc2Cl)no1` was less than 0.2 µg/mL; that for `O=C(CCc1ccc(S(=O)(=O)N2CCOCC2)cc1)OCC(=O)c1ccccc1F` was 49.6 µg/mL (≈ 114 µM); that for `CC(C)C(=O)Nc1cc(-c2nc3ncccc3o2)ccc1Cl` was 6 µg/mL (≈ 19 µM).
Regarding `COc1ccc(C(=O)N2CCn3c2nc2ccccc23)cc1`, the kinetic solubility amounted to 6.7 µg/mL (≈ 22.8 µM).
The result for `COc1ccccc1CN1CCN(S(=O)(=O)c2ccc(C)cc2)CC1` reads 1 µg/mL (≈ 2.77 µM); that for `Cc1ccc(-c2nc3ncccc3o2)cc1NC(=O)C(C)C`, 25.3 µg/mL (≈ 85.7 µM).
The value for `Cc1ccccc1NC(=O)Nc1cnccn1` was 12.4 µg/mL (≈ 54.3 µM); that for `C=CCn1cnnc1SCC(=O)Nc1cccnc1Cl` was greater than 46.5 µg/mL.
As to `CCN(CC)/C(=N\S(=O)(=O)c1ccc(F)cc1)c1ccccc1`, the solubility (kinetic) was greater than 50.2 µg/mL.
The result for `CSc1ccc(S(=O)(=O)Nc2ccc3c(c2)NC(=O)CC3)cc1` reads 8 µg/mL (≈ 23 µM); that for `COc1ccc(/C=C2\SC(N3CCCCC3)=NC2=O)cc1`, 1.3 µg/mL (≈ 4.3 µM).
For `CCOc1ccc2[nH]c3c(=O)n(CCC4=CCCCC4)cnc3c2c1`, the solubility (kinetic) stood at 10.7 µg/mL (≈ 31.7 µM).
The result for `O=C(O)c1cccnc1SCc1ccc([N+](=O)[O-])cc1` reads greater than 43.5 µg/mL; that for `COc1ccc(-c2nc3ccccc3c(=O)[nH]2)cc1`, 2.2 µg/mL (≈ 8.72 µM).
In the case of `Cc1cc(=O)[nH]c(SCC(=O)N2CCCC(C)C2)n1` (configuration not stated), the kinetic solubility was greater than 42.2 µg/mL.
The result for `CSc1nc2ccccc2c(=O)n1Cc1ccc(F)cc1` reads less than 0.3 µg/mL; that for `CC(NC(=O)c1ccco1)c1ccc(-n2ccnc2)cc1` (configuration not stated), greater than 42.2 µg/mL.
Take `CCCN(CC(=O)Nc1cc(C)on1)CC(=O)Nc1ccc(F)c(F)c1F`: the kinetic solubility is 44.1 µg/mL (≈ 115 µM).
The value for `CC(=O)Nc1cc2c3c(c1)CC(=O)N3CCC2` was greater than 34.5 µg/mL; that for `CCOc1ccccc1NC(=O)Cc1coc2ccc(C)cc12` was 7.3 µg/mL (≈ 23.6 µM).
The result for `Nc1c2c(nn1-c1ccccc1)CCC2` reads greater than 29.9 µg/mL.
The value for `O=C(COC(=O)c1cnccn1)NCc1ccc(Cl)cc1` was greater than 45.9 µg/mL.
In turn, `COc1ccccc1C(c1c(N)n(C)c(=O)n(C)c1=O)C(C)[N+](=O)[O-]` (configuration not stated) had a kinetic solubility greater than 52.3 µg/mL.
The value for `CCc1ccnc(NS(=O)(=O)c2ccc3c(c2)CCO3)c1` was 17.6 µg/mL (≈ 57.8 µM); that for `FC(F)(F)Oc1ccc(NC2=NCCCS2)cc1` was 41.4 µg/mL (≈ 150 µM); that for `C#CC[N+]1(C)C2CCC1CC(O)C2.[Br-]` (configuration not stated) was 33.7 µg/mL.
Consider `O=C(O)[C@H](Cc1c[nH]c2ccccc12)Nc1ncccc1[N+](=O)[O-]`, for which the kinetic solubility is greater than 48.9 µg/mL.
The result for `COc1ccccc1N1C(=O)CSC1=NC(=O)c1ccccc1` reads 3 µg/mL (≈ 9.19 µM).
`CN(C(=S)NC(=O)C1CC1)c1ccc(O)cc1` registered a solubility (kinetic) greater than 37.5 µg/mL.
The value for `Cc1ccc(Cl)cc1NC(=O)Cn1c(C)csc1=O` was 16.4 µg/mL (≈ 55.3 µM); that for `Cc1ccc(S(=O)(=O)Nc2ccccc2CNC2CCCCC2)cc1` was greater than 53.8 µg/mL.
Take `CC1Oc2ccccc2N(CC(=O)Nc2ccc(F)cc2)C1=O` (configuration not stated): the kinetic solubility amounted to 12.6 µg/mL (≈ 40.1 µM).
For the compound `O=c1[nH]c(Sc2ccc([N+](=O)[O-])cc2[N+](=O)[O-])nc2ccccc12`, the solubility (kinetic) was determined as 26.3 µg/mL (≈ 76.4 µM).
Regarding `COc1ccc(Cl)cc1C(=O)OCC(=O)Nc1sccc1C(N)=O`, the solubility (kinetic) is 6.6 µg/mL (≈ 17.9 µM).
Turning to `CC(C)Cc1csc(NC(=O)C(C)C)c1C(=O)O`, the kinetic solubility is greater than 40.4 µg/mL.
